Results as given in BigSolDB 2.1.

C[C@H]1[C@H](C)CC[C@]2(C(=O)O)CC[C@]3(C)C(=CC[C@@H]4[C@@]5(C)CC[C@H](O)C(C)(C)[C@@H]5CC[C@]43C)[C@H]12
solubility (mole fraction) (in MIBK, 278.2 K): 0.00094 | solubility (mole fraction) (in MIBK, 283.2 K): 0.00104 | solubility (mole fraction) (in MIBK, 288.2 K): 0.00106 | solubility (mole fraction) (in MIBK, 293.2 K): 0.00109 | solubility (mole fraction) (in MIBK, 298.2 K): 0.00127 | solubility (mole fraction) (in MIBK, 303.2 K): 0.00128 | solubility (mole fraction) (in MIBK, 308.2 K): 0.0015 | solubility (mole fraction) (in MIBK, 313.2 K): 0.00169 | solubility (mole fraction) (in MIBK, 318.2 K): 0.00184 | solubility (mole fraction) (in MTBE, 278.2 K): 0.00167 | solubility (mole fraction) (in MTBE, 283.2 K): 0.00175 | solubility (mole fraction) (in MTBE, 288.2 K): 0.0021 | solubility (mole fraction) (in MTBE, 293.2 K): 0.00248 | solubility (mole fraction) (in MTBE, 298.2 K): 0.00288 | solubility (mole fraction) (in MTBE, 303.2 K): 0.00305 | solubility (mole fraction) (in MTBE, 308.2 K): 0.00311 | solubility (mole fraction) (in MTBE, 313.2 K): 0.00315 | solubility (mole fraction) (in MTBE, 318.2 K): 0.00338 | solubility (mole fraction) (in n-butanol, 278.2 K): 0.00153 | solubility (mole fraction) (in n-butanol, 283.2 K): 0.00168 | solubility (mole fraction) (in n-butanol, 288.2 K): 0.00226 | solubility (mole fraction) (in n-butanol, 293.2 K): 0.00266 | solubility (mole fraction) (in n-butanol, 298.2 K): 0.00334 | solubility (mole fraction) (in n-butanol, 303.2 K): 0.00387 | solubility (mole fraction) (in n-butanol, 308.2 K): 0.00411 | solubility (mole fraction) (in n-butanol, 313.2 K): 0.00466 | solubility (mole fraction) (in n-butanol, 318.2 K): 0.00504
